Measured values published in patent US12275684B2, “Methods for making and using endoxifen” (Atossa Therapeutics, Inc., priority 2017, dated 2025).
Several values for one entry are separate records, joined by “and”; a condition that tells them apart may be missing. Equal entries are not always repeated. Where two headings read alike, the source gives them in different places.

How the values were obtained:
[1] = cited from earlier work
[2] = Accelerated stability study of (Z)-endoxifen free base solution in ethanol (E/Z by HPLC); format: physicochemical
Protocol: HPLC-UV analyses of the samples was carried out using a Luna phenyl-hexyl column (4.6 mm×150 mm×3 μm of particle size). The column temperature was 40° C. and sample compartment temperature was maintained at ambient temperature. Samples were prepared by dissolving solids and filtrates at 0.2 mg/ml of sample in methanol as sample buffer. Samples were then injected into the column in an injection volume of 20 μl. Likewise, mildly acidic (pH 4.3) ammonium formate buffer/methanol in the mobile phase with gradient elution was used. Mobile phase system consisting of: Mobile Phase A (MPA) buffer was 10 mM HCOONH4 with 0.03% HCOOH buffer in water, and Mobile Phase B (MBP) buffer was 10 mM HCOONH4 in methanol with a gradient program used.
The run time was 30 m, the flow rate was 1.0 mL/m, and the delay time was 5 m. Samples were detected by UV detection at 243 nm. Retention times were typically from 12.95 to 13.20 m for (E)-endoxifen and from 14.0 to 14.33 m for (Z)-endoxifen. Relative Retention Time (RRT) for (E)-endoxifen was […] and 1.0 for (Z)-endoxifen.
The stability of (Z)-endoxifen free base Sample 1 of Table 11 was studied when stored at various temperatures in solid form and in ethanol (EtOH) solution. The (E)-endoxifen and (Z)-endoxifen levels were measured on days 2, 7 and 10 following placement of 1 g aliquots of purified (Z)-endoxifen free base in 180 mL HDPE bottles under dry N2, which were then placed in double LDPE bags. The double bagged HDPE bottles containing each sample were individually packed in aluminum foil bags and thermally sealed until they were opened for testing the stability of the samples. The (E)- and (Z)-isomers of endoxifen were monitored by HPLC as disclosed above. The purity of (Z)-endoxifen in solid form remained at about 97% at 40° C., 60° C., and 80° C. up to 10 days.

[3] = Bulk drug stability study of (Z)-endoxifen free base; format: physicochemical
Protocol: For bulk stability studies, ˜1 g aliquots of (Z)-endoxifen free base were placed inside individually in double LDPE bags tied with a nylon cable tie. The LDPE bags were then placed in aluminum foil bags and thermally sealed. The samples for stability were placed in tightly capped, 180 mL HDPE bottles under inert conditions (dry nitrogen) at 5° C. and 25° C./60% RH for 12 months, and at 40° C./75% RH for 3 months. The samples were tested for (E)-endoxifen and (Z)-endoxifen concentrations and impurities, moisture or water content by Karl Fischer titration, aerobic bacterial colony forming units and appearance at time points day 0, 10 days, 1 m and 3 m. Table 13 below provides bulk drug stability data at 9 m on endoxifen free base at varying storage conditions.

[4] = 2.8 mg/mL in 70% EtOH, 25° C., 2 days
[5] = 2.8 mg/mL in 70% EtOH, 25° C., 7 days
[6] = 2.8 mg/mL in 70% EtOH, 25° C., 10 days
[7] = 2.8 mg/mL in 70% EtOH, 40° C., 2 days
[8] = 2.8 mg/mL in 70% EtOH, 40° C., 7 days
[9] = 2.8 mg/mL in 70% EtOH, 40° C., 10 days
[10] = 10 mg/mL in 99.5% EtOH, 25° C., 2 days
[11] = 10 mg/mL in 99.5% EtOH, 25° C., 7 days
[12] = 10 mg/mL in 99.5% EtOH, 25° C., 10 days
[13] = 10 mg/mL in 99.5% EtOH, 40° C., 2 days
[14] = 10 mg/mL in 99.5% EtOH, 40° C., 7 days
[15] = 10 mg/mL in 99.5% EtOH, 40° C., 10 days

- (E)-endoxifen content [2, 4]: (2.09%/
- (Z)-endoxifen content [2, 4]: 96.59%)
- E/Z ratio [2, 4]: 1/46
- Total Impurity [2, 4]: 1.33%
- (E)-endoxifen content [2, 5]: (5.62%
- (Z)-endoxifen content [2, 5]: 92.67%)
- E/Z ratio [2, 5]: 1/17
- Total Impurity [2, 5]: 1.71%
- (E)-endoxifen content [2, 6]: (10.46%/
- (Z)-endoxifen content [2, 6]: 88.20%)
- Total Impurity [2, 6]: 1.34%
- (E)-endoxifen content [2, 7]: (4.43%/
- (Z)-endoxifen content [2, 7]: 94.23%)
- E/Z ratio [2, 7]: 1/21
- Total Impurity [2, 7]: 1.34%
- (E)-endoxifen content [2, 8]: (15.23%/
- (Z)-endoxifen content [2, 8]: 83.04%)
- Total Impurity [2, 8]: 1.73%
- (E)-endoxifen content [2, 9]: (22.59%/
- (Z)-endoxifen content [2, 9]: 76.09%)
- Total Impurity [2, 9]: 1.32%
- (E)-endoxifen content [2, 10]: (1.37%/
- (Z)-endoxifen content [2, 10]: 97.33%)
- E/Z ratio [2, 10]: 1/71
- Total Impurity [2, 10]: 1.3%
- (E)-endoxifen content [2, 11]: (1.91%/
- (Z)-endoxifen content [2, 11]: 96.37%)
- E/Z ratio [2, 11]: 1/50
- Total Impurity [2, 11]: 1.72%
- (E)-endoxifen content [2, 12]: (2.58%/
- (Z)-endoxifen content [2, 12]: 96.03%)
- E/Z ratio [2, 12]: 1/37
- Total Impurity [2, 12]: 1.39%
- (E)-endoxifen content [2, 13]: (1.70%/
- (Z)-endoxifen content [2, 13]: 96.98%)
- E/Z ratio [2, 13]: 1/57
- Total Impurity [2, 13]: 1.32%
- (E)-endoxifen content [2, 14]: (2.82%/
- (Z)-endoxifen content [2, 14]: 95.45%)
- E/Z ratio [2, 14]: 1/34
- Total Impurity [2, 14]: 1/73%
- (E)-endoxifen content [2, 15]: (3.56%/
- (Z)-endoxifen content [2, 15]: 95.10%)
- E/Z ratio [2, 15]: 1/27
- Total Impurity [2, 15]: 1.34%
- stability in alcoholic solutions ([2]; ethanol, elevated temperatures (40° C.), higher concentrations, over 10 days): surprisingly stable
- time for which stable ([3]; 40° C./75% RH): at least 3 months
- (Z)-endoxifen USP <921≥ Plate Count ([3]; Storage 5° C.): 13990 cfu g/mL
- (E)-endoxifen content ([3]; Storage 5° C., 0 m): 0.19%
- (Z)-endoxifen % Purity ([3]; Storage 5° C., 0 m): 99.5%
- Max Indiv. Impurity ([3]; Storage 5° C., 0 m): 0.11%
- Water content (Karl Fischer) ([3]; Storage 5° C., 0 m): 0.06%
- (E)-endoxifen content ([3]; Storage 5° C., 3 m): 0.17%
- (Z)-endoxifen % Purity ([3]; Storage 5° C., 3 m): 99.6%
- Max Indiv. Impurity ([3]; Storage 5° C., 3 m): 0.10%
- Water content (Karl Fischer) ([3]; Storage 5° C., 3 m): 0.05%
- (E)-endoxifen content ([3]; Storage 5° C., 6 m): 0.18%
- (Z)-endoxifen % Purity ([3]; Storage 5° C., 6 m): 99.5%
- Max Indiv. Impurity ([3]; Storage 5° C., 6 m): 0.11%
- Water content (Karl Fischer) ([3]; Storage 5° C., 6 m): 0.05%
- (E)-endoxifen content ([3]; Storage 5° C., 9 m): 0.19%
- (Z)-endoxifen % Purity ([3]; Storage 5° C., 9 m): 99.5%
- Max Indiv. Impurity ([3]; Storage 5° C., 9 m): 0.11%
- Water content (Karl Fischer) ([3]; Storage 5° C., 9 m): 0.05%
- (Z)-endoxifen USP <921≥ Plate Count ([3]; Storage 25° C./60% RH): 14030 cfu g/mL
- (E)-endoxifen content ([3]; Storage 25° C./60% RH, 0 m): 0.19%
- (Z)-endoxifen % Purity ([3]; Storage 25° C./60% RH, 0 m): 99.5%
- Max Indiv. Impurity ([3]; Storage 25° C./60% RH, 0 m): 0.11%
- Water content (Karl Fischer) ([3]; Storage 25° C./60% RH, 0 m): 0.06%
- (E)-endoxifen content ([3]; Storage 25° C./60% RH, 3 m): 0.17%
- (Z)-endoxifen % Purity ([3]; Storage 25° C./60% RH, 3 m): 99.6%
- Max Indiv. Impurity ([3]; Storage 25° C./60% RH, 3 m): 0.11%
- Water content (Karl Fischer) ([3]; Storage 25° C./60% RH, 3 m): 0.05%
- (E)-endoxifen content ([3]; Storage 25° C./60% RH, 6 m): 0.18%
- (Z)-endoxifen % Purity ([3]; Storage 25° C./60% RH, 6 m): 99.5%
- Max Indiv. Impurity ([3]; Storage 25° C./60% RH, 6 m): 0.11%
- Water content (Karl Fischer) ([3]; Storage 25° C./60% RH, 6 m): 0.06%
- (E)-endoxifen content ([3]; Storage 25° C./60% RH, 9 m): 0.19%
- (Z)-endoxifen % Purity ([3]; Storage 25° C./60% RH, 9 m): 99.5%
- Max Indiv. Impurity ([3]; Storage 25° C./60% RH, 9 m): 0.11%
- Water content (Karl Fischer) ([3]; Storage 25° C./60% RH, 9 m): 0.07%
- (Z)-endoxifen USP <921≥ Plate Count ([3]; Storage 40° C./75% RH): 13776 cfu g/mL
- (E)-endoxifen content ([3]; Storage 40° C./75% RH, 0 m): 0.19%
- (Z)-endoxifen % Purity ([3]; Storage 40° C./75% RH, 0 m): 99.5%
- Max Indiv. Impurity ([3]; Storage 40° C./75% RH, 0 m): 0.11%
- Water content (Karl Fischer) ([3]; Storage 40° C./75% RH, 0 m): 0.06%
- (E)-endoxifen content ([3]; Storage 40° C./75% RH, 3 m): 0.17%
- (Z)-endoxifen % Purity ([3]; Storage 40° C./75% RH, 3 m): 99.5%
- Max Indiv. Impurity ([3]; Storage 40° C./75% RH, 3 m): 0.11%
- Water content (Karl Fischer) ([3]; Storage 40° C./75% RH, 3 m): 0.07%
- time for which stable ([3]; ambient temperature): at least 9 months
- time for which stable ([3]; solid, 5° C.): at least 9 months
- time for which stable ([3]; solid, 25° C./60% RH): at least 9 months
- aerobic bacterial plate count TAC ([3]; storage conditions studied): less than 20,000 cfu g/mL
- water content ([3]; storage conditions studied): not more than 1%
Compound: CC/C(=C(\c1ccc(O)cc1)c1ccc(OCCNC)cc1)c1ccccc1 [(Z)-Endoxifen, (Z)-4-(1-(4-(2-(methylamino)ethoxy)phenyl)-2-phenylbut-1-enyl) phenol]
- Published Literature Result of Average Plasma (Z)-Endoxifen Css ([1]; oral dose 1 mg): 12.4 ng/mL and 33.1 nM
- Published Literature Result of Average Plasma (Z)-Endoxifen Css ([1]; oral dose 2 mg): 18.6 ng/mL and 49.8 nM
- Published Literature Result of Average Plasma (Z)-Endoxifen Css ([1]; oral dose 4 mg): 56.8 ng/mL and 152.1 nM
- Published Literature Result of Average Plasma (Z)-Endoxifen Css ([1]; oral dose 8 mg): 96.8 ng/mL and 259.2 nM
